Active and inactive are the calls of the source. The rule behind the calls is not given here.
Test system: CCRIS mutagenicity, Ames/micronucleus/aberration tests
Assay: CCRIS mutagenicity studies

Nc1ccc(Cl)cc1
mutagenic call (End Point: IN VITRO MICRONUCLEUS, Test System: CHL/IU CELLS, Metabolic Activation: RAT, LIVER, S-9, PHENOBARBITAL AND 5,6-BENZOFLAVONE): inactive; negative
mutagenic call (Test System: AMES SALMONELLA TYPHIMURIUM, Strain/Indicator: TA97, Metabolic Activation: HAMSTER, LIVER, S-9, AROCLOR 1254, Method: PREINCUBATION): inactive; negative
mutagenic call (Test System: AMES SALMONELLA TYPHIMURIUM, Strain/Indicator: TA97, Metabolic Activation: NONE, Method: PREINCUBATION): inactive; negative
mutagenic call (Test System: AMES SALMONELLA TYPHIMURIUM, Strain/Indicator: TA97, Metabolic Activation: RAT, LIVER, S-9, AROCLOR 1254, Method: PREINCUBATION): inactive; negative
mutagenic call (Test System: AMES SALMONELLA TYPHIMURIUM, Strain/Indicator: TA98, Metabolic Activation: HAMSTER, LIVER, S-9 (10%), AROCLOR 1254, Method: PREINCUBATION): active; positive
mutagenic call (Test System: AMES SALMONELLA TYPHIMURIUM, Strain/Indicator: TA98, Metabolic Activation: HAMSTER, LIVER, S-9, AROCLOR 1254, Method: STANDARD PLATE): active; positive
mutagenic call (Test System: AMES SALMONELLA TYPHIMURIUM, Strain/Indicator: TA98, Metabolic Activation: NONE, Method: PREINCUBATION): inactive; negative
mutagenic call (Test System: AMES SALMONELLA TYPHIMURIUM, Strain/Indicator: TA98, Metabolic Activation: NONE, Method: SPOT TEST): inactive; negative
mutagenic call (Test System: AMES SALMONELLA TYPHIMURIUM, Strain/Indicator: TA98, Metabolic Activation: RAT, LIVER, S-9 (5%, 10% OR 30%), AROCLOR 1254, Method: PREINCUBATION): active; positive
mutagenic call (Test System: AMES SALMONELLA TYPHIMURIUM, Strain/Indicator: TA98, Metabolic Activation: RAT, LIVER, S-9, AROCLOR 1254, Method: SPOT TEST): inactive; negative
mutagenic call (Test System: AMES SALMONELLA TYPHIMURIUM, Strain/Indicator: TA98, Metabolic Activation: RAT, LIVER, S-9, SODIUM PHENOBARBITONE, Method: SPOT TEST): inactive; negative
mutagenic call (Test System: AMES SALMONELLA TYPHIMURIUM, Strain/Indicator: TA98, Metabolic Activation: RAT, LIVER, S-9, SODIUM PHENOBARBITONE, Method: STANDARD PLATE): inactive; negative
mutagenic call (Test System: AMES SALMONELLA TYPHIMURIUM, Strain/Indicator: TA100, Metabolic Activation: HAMSTER, LIVER, S-9 (5% OR 10%), AROCLOR 1254, Method: PREINCUBATION): inactive; negative
mutagenic call (Test System: AMES SALMONELLA TYPHIMURIUM, Strain/Indicator: TA100, Metabolic Activation: HAMSTER, LIVER, S-9, AROCLOR 1254, Method: PREINCUBATION): inactive; negative
mutagenic call (Test System: AMES SALMONELLA TYPHIMURIUM, Strain/Indicator: TA100, Metabolic Activation: HAMSTER, LIVER, S-9, AROCLOR 1254, Method: STANDARD PLATE): inactive; negative
mutagenic call (Test System: AMES SALMONELLA TYPHIMURIUM, Strain/Indicator: TA100, Metabolic Activation: NONE, Method: PREINCUBATION): inactive; negative
mutagenic call (Test System: AMES SALMONELLA TYPHIMURIUM, Strain/Indicator: TA100, Metabolic Activation: NONE, Method: SPOT TEST): inactive; negative
mutagenic call (Test System: AMES SALMONELLA TYPHIMURIUM, Strain/Indicator: TA100, Metabolic Activation: RAT, LIVER, S-9 (5% OR 10%), AROCLOR 1254, Method: PREINCUBATION): inactive; negative
mutagenic call (Test System: AMES SALMONELLA TYPHIMURIUM, Strain/Indicator: TA100, Metabolic Activation: RAT, LIVER, S-9 (30%), AROCLOR 1254, Method: PREINCUBATION): inactive; negative
mutagenic call (Test System: AMES SALMONELLA TYPHIMURIUM, Strain/Indicator: TA100, Metabolic Activation: RAT, LIVER, S-9, AROCLOR 1254, Method: PREINCUBATION): inactive; negative
mutagenic call (Test System: AMES SALMONELLA TYPHIMURIUM, Strain/Indicator: TA100, Metabolic Activation: RAT, LIVER, S-9, AROCLOR 1254, Method: SPOT TEST): inactive; negative
mutagenic call (Test System: AMES SALMONELLA TYPHIMURIUM, Strain/Indicator: TA100, Metabolic Activation: RAT, LIVER, S-9, AROCLOR 1254, Method: STANDARD PLATE): inactive; negative
mutagenic call (Test System: AMES SALMONELLA TYPHIMURIUM, Strain/Indicator: TA100, Metabolic Activation: RAT, LIVER, S-9, SODIUM PHENOBARBITONE, Method: SPOT TEST): inactive; negative
mutagenic call (Test System: AMES SALMONELLA TYPHIMURIUM, Strain/Indicator: TA100, Metabolic Activation: RAT, LIVER, S-9, SODIUM PHENOBARBITONE, Method: STANDARD PLATE): inactive; negative
mutagenic call (Test System: AMES SALMONELLA TYPHIMURIUM, Strain/Indicator: TA1535, Metabolic Activation: HAMSTER, LIVER, S-9, AROCLOR 1254, Method: PREINCUBATION): inactive; negative
mutagenic call (Test System: AMES SALMONELLA TYPHIMURIUM, Strain/Indicator: TA1535, Metabolic Activation: NONE, Method: PREINCUBATION): inactive; negative
mutagenic call (Test System: AMES SALMONELLA TYPHIMURIUM, Strain/Indicator: TA1535, Metabolic Activation: NONE, Method: SPOT TEST): inactive; negative
mutagenic call (Test System: AMES SALMONELLA TYPHIMURIUM, Strain/Indicator: TA1535, Metabolic Activation: NONE, Method: STANDARD PLATE): inactive; negative
mutagenic call (Test System: AMES SALMONELLA TYPHIMURIUM, Strain/Indicator: TA1535, Metabolic Activation: RAT, LIVER, S-9, AROCLOR 1254, Method: PREINCUBATION): inactive; negative
mutagenic call (Test System: AMES SALMONELLA TYPHIMURIUM, Strain/Indicator: TA1535, Metabolic Activation: RAT, LIVER, S-9, AROCLOR 1254, Method: SPOT TEST): inactive; negative
mutagenic call (Test System: AMES SALMONELLA TYPHIMURIUM, Strain/Indicator: TA1535, Metabolic Activation: RAT, LIVER, S-9, AROCLOR 1254, Method: STANDARD PLATE): inactive; negative
mutagenic call (Test System: AMES SALMONELLA TYPHIMURIUM, Strain/Indicator: TA1535, Metabolic Activation: RAT, LIVER, S-9, SODIUM PHENOBARBITONE, Method: SPOT TEST): inactive; negative
mutagenic call (Test System: AMES SALMONELLA TYPHIMURIUM, Strain/Indicator: TA1535, Metabolic Activation: RAT, LIVER, S-9, SODIUM PHENOBARBITONE, Method: STANDARD PLATE): inactive; negative
mutagenic call (Test System: AMES SALMONELLA TYPHIMURIUM, Strain/Indicator: TA1537, Metabolic Activation: HAMSTER, LIVER, S-9, AROCLOR 1254, Method: PREINCUBATION): inactive; negative
mutagenic call (Test System: AMES SALMONELLA TYPHIMURIUM, Strain/Indicator: TA1537, Metabolic Activation: NONE, Method: PREINCUBATION): inactive; negative
mutagenic call (Test System: AMES SALMONELLA TYPHIMURIUM, Strain/Indicator: TA1537, Metabolic Activation: NONE, Method: SPOT TEST): inactive; negative
mutagenic call (Test System: AMES SALMONELLA TYPHIMURIUM, Strain/Indicator: TA1537, Metabolic Activation: NONE, Method: STANDARD PLATE): inactive; negative
mutagenic call (Test System: AMES SALMONELLA TYPHIMURIUM, Strain/Indicator: TA1537, Metabolic Activation: RAT, LIVER, S-9, AROCLOR 1254, Method: PREINCUBATION): inactive; negative
mutagenic call (Test System: AMES SALMONELLA TYPHIMURIUM, Strain/Indicator: TA1537, Metabolic Activation: RAT, LIVER, S-9, AROCLOR 1254, Method: SPOT TEST): inactive; negative
mutagenic call (Test System: AMES SALMONELLA TYPHIMURIUM, Strain/Indicator: TA1537, Metabolic Activation: RAT, LIVER, S-9, AROCLOR 1254, Method: STANDARD PLATE): inactive; negative
mutagenic call (Test System: AMES SALMONELLA TYPHIMURIUM, Strain/Indicator: TA1537, Metabolic Activation: RAT, LIVER, S-9, SODIUM PHENOBARBITONE, Method: SPOT TEST): inactive; negative
mutagenic call (Test System: AMES SALMONELLA TYPHIMURIUM, Strain/Indicator: TA1537, Metabolic Activation: RAT, LIVER, S-9, SODIUM PHENOBARBITONE, Method: STANDARD PLATE): inactive; negative
mutagenic call (Test System: AMES SALMONELLA TYPHIMURIUM, Strain/Indicator: TA1538, Metabolic Activation: NONE, Method: SPOT TEST): inactive; negative
mutagenic call (Test System: AMES SALMONELLA TYPHIMURIUM, Strain/Indicator: TA1538, Metabolic Activation: NONE, Method: STANDARD PLATE): inactive; negative
mutagenic call (Test System: AMES SALMONELLA TYPHIMURIUM, Strain/Indicator: TA1538, Metabolic Activation: RAT, LIVER, S-9, AROCLOR 1254, Method: SPOT TEST): inactive; negative
mutagenic call (Test System: AMES SALMONELLA TYPHIMURIUM, Strain/Indicator: TA1538, Metabolic Activation: RAT, LIVER, S-9, AROCLOR 1254, Method: STANDARD PLATE): inactive; negative
mutagenic call (Test System: AMES SALMONELLA TYPHIMURIUM, Strain/Indicator: TA1538, Metabolic Activation: RAT, LIVER, S-9, SODIUM PHENOBARBITONE, Method: SPOT TEST): inactive; negative
mutagenic call (Test System: AMES SALMONELLA TYPHIMURIUM, Strain/Indicator: TA1538, Metabolic Activation: RAT, LIVER, S-9, SODIUM PHENOBARBITONE, Method: STANDARD PLATE): inactive; negative
mutagenic call (Test System: E. COLI, Strain/Indicator: WP2 UVRA(P), Metabolic Activation: NONE, Method: STANDARD PLATE): inactive; negative
mutagenic call (Test System: E. COLI, Strain/Indicator: WP2 UVRA, Metabolic Activation: NONE, Method: FLUCTUATION TEST): inactive; negative
mutagenic call (Test System: E. COLI, Strain/Indicator: WP2 UVRA, Metabolic Activation: NONE, Method: STANDARD PLATE): inactive; negative
mutagenic call (Test System: MOUSE LYMPHOMA, Strain/Indicator: L5178Y (TK+/TK-), Metabolic Activation: NONE, Method: SUSPENSION/PLATE): active; positive
mutagenic call (Test System: MOUSE LYMPHOMA, Strain/Indicator: L5178Y (TK+/TK-), Metabolic Activation: RAT, LIVER, S-9, AROCLOR 1254, Method: SUSPENSION/PLATE): active; positive
mutagenic call (Test System: Mouse lymphoma, Strain/Indicator: L5178Y (tk+/tk-), Metabolic Activation: None, Method: Suspension/plate): active; equivocal (previous evaluation positive)
mutagenic call (Test System: Mouse lymphoma, Strain/Indicator: T5178Y (tk+/tk-), Metabolic Activation: Rat, Liver, S-9, Aroclor 1254, Method: Suspension/plate): active; inconclusive (previous evaluation positive)

Source: PubChem BioAssay AID1259407 (Chemical Carcinogenesis Research Information System (CCRIS), 2018)
